From patent US20220194935A1, “PHENETHYL SUBSTITUTED IMIDAZO[4,5-C]QUINOLINE COMPOUNDS WITH AN N-1 BRANCHED GROUP” (3M INNOVATIVE PROPERTIES COMPANY, priority 2019, published 2022)

Legend:
human TLR7 = molecular target: T1, human TLR7 (Homo sapiens, UniProt Q9NYK1); experiment: TLR Activation and Specificity, HEK-BLUE-hTLR7 SEAP reporter cells; type: cell-based; details: 16-20 hours, at least 2× vehicle control, tested 0.01-30 micromolar
T1 construct: host or cells: HEK293 (HEK-BLUE-hTLR7)
T1 sequence (Q9NYK1 27-1049): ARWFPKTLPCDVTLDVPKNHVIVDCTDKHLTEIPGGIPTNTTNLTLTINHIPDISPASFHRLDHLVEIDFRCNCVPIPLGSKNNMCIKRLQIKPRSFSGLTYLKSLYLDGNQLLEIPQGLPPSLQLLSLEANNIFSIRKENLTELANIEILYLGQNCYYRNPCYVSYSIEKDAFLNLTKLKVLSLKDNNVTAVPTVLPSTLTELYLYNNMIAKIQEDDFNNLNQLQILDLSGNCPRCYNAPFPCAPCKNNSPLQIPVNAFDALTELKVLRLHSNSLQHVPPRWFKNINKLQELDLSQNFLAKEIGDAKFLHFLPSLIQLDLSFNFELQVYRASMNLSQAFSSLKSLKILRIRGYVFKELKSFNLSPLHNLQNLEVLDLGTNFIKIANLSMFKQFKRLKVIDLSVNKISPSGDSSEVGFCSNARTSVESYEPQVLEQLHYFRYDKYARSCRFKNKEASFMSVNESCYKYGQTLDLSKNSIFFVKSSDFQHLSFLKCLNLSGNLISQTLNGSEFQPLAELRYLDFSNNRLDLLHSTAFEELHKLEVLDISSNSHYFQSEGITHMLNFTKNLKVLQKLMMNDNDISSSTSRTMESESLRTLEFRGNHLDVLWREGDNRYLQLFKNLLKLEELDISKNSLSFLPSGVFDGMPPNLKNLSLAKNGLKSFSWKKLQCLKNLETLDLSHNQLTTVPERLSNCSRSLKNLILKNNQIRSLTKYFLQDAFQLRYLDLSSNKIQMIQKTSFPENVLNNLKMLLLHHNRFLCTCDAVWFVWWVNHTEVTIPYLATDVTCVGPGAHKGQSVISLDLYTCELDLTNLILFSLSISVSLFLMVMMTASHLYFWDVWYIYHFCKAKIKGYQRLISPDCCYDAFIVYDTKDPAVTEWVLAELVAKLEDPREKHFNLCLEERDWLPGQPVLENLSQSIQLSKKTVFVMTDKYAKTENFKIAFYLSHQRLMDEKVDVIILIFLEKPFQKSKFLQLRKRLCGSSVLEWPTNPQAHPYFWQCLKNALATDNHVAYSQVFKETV
Description: (§1) HEK-BLUE-hTLR7 or hTLR8 reporter cells were obtained from InvivoGen, San Diego, Calif. According to the manufacturer's description, these reporter cells were prepared by co-transfection of HEK293 cells with an inducible secreted embryonic alkaline phosphatase (SEAP) reporter gene and either the human TLR7 or TLR8 gene. The SEAP reporter gene was placed under the control of an IFN-β minimal promoter fused to five NF-κB and AP-1-binding sites. In the presence of a TLR ligand, activation of NF-κB and AP-1 occurs, resulting in a corresponding increase in SEAP levels.
(§2) In the assay, the HEK cells were grown and maintained using standard cell culture techniques in a growth medium that contained Dulbecco's Modified Eagle Medium (ThermoFisher Scientific Incorporated, Waltham, Mass.) supplemented with 1% penicillin/streptomycin and 10% heat-inactivated Gibco fetal bovine serum (ThermoFisher Scientific). Each compound was solubilized in DMSO to create a 3 millimole (mM) stock solution. The stock solution was then further diluted with the growth medium to prepare serial dilutions. Each test compound was tested at a concentration of 30, 10, 3.3, 1.1, 0.37, 0.12, 0.04, and 0.01 micromolar using a 96-well format with 5×10^4 cells and 200 microliters of growth medium per well.
(§3) For each compound, hTLR7, hTLR8, and their respective null control HEK cells were screened. DMSO serially diluted into the growth medium served as the vehicle control. Cell culture supernatants containing the SEAP reporter were collected after an incubation period of 16-20 hours in a cell culture incubator (37° C. and 5% CO2), and either analyzed immediately or stored at −80° C. SEAP levels were measured using the colorimetric enzyme assay (QUANTI-BLUE (InvivoGen) according to manufacturer's instructions.
(§4) Specifically, the minimum effective concentration of each compound (micromolar) was determined as the lowest concentration of the compound that produced a SEAP expression response at least 2× greater than that observed with the vehicle control wells.

human TLR8 = molecular target: T2, human TLR8 (Homo sapiens, UniProt Q9NR97); experiment: TLR Activation and Specificity, HEK-BLUE-hTLR8 SEAP reporter cells; type: cell-based; details: 16-20 hours, at least 2× vehicle control, tested 0.01-30 micromolar
T2 construct: host or cells: HEK293 (HEK-BLUE-hTLR8)
T2 sequence (Q9NR97 27-1041): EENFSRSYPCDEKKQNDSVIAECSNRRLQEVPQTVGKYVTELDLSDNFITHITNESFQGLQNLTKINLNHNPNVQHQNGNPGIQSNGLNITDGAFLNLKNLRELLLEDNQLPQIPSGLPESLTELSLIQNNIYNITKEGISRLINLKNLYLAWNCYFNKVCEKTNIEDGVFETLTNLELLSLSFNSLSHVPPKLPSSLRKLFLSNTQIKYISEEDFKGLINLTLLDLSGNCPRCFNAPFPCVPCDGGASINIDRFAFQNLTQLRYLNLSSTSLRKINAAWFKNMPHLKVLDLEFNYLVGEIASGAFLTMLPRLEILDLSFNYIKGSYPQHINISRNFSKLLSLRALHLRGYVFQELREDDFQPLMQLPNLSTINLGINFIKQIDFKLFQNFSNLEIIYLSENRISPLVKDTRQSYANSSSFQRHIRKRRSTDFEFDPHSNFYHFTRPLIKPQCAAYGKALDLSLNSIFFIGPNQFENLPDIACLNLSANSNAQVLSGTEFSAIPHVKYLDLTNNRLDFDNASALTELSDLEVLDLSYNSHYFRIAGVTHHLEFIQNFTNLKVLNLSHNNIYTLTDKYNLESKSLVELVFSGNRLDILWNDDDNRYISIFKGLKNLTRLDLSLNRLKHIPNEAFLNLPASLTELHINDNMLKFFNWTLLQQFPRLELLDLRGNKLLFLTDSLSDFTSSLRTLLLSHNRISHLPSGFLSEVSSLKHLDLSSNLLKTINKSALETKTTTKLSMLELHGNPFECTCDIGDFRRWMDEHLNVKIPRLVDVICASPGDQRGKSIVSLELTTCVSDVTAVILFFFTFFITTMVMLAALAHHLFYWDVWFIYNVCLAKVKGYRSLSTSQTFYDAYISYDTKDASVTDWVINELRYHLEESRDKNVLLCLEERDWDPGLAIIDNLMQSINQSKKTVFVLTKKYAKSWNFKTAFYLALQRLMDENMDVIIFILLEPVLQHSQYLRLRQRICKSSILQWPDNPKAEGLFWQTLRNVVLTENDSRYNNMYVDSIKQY
Description: as §1, §2, §3, §4

MEC to Produce TLR Activation, TLR 7 (human TLR7) [µM]	MEC to Produce TLR Activation, TLR 8 (human TLR8) [µM]	SMILES
1.1	>30	Nc1nc2ccccc2c2c1ncn2CCc1ccccc1 [Comparative Example 1, 1-phenethyl-1H-imidazo[4,5-c]quinolin-4-amine, reference compound]
1.1	>30	CCOC[C@@H](Cc1ccccc1)n1cnc2c(N)nc3ccccc3c21 [Example 4, 1-[(1R)-1-benzyl-2-ethoxy-ethyl]imidazo[4,5-c]quinolin-4-amine]
0.37	>30	C[C@H](Cc1ccccc1)n1cnc2c(N)nc3ccccc3c21 [Example 1, 1-[(1R)-1-methyl-2-phenyl-ethyl]imidazo[4,5-c]quinolin-4-amine]
≤0.01	10	COC[C@H](Cc1ccccc1)n1cnc2c(N)nc3ccccc3c21 [Example 5, 1-[(1S)-1-benzyl-2-methoxy-ethyl]imidazo[4,5-c]quinolin-4-amine]
1.1	>30	COC[C@@H](Cc1ccccc1)n1cnc2c(N)nc3ccccc3c21 [Example 3, 1-[(1R)-1-benzyl-2-methoxy-ethyl]imidazo[4,5-c]quinolin-4-amine]
≤0.01	10	CCCC[C@H](Cc1ccccc1)n1cnc2c(N)nc3ccccc3c21 [Example 2, 1-[(1R)-1-benzylpentyl]imidazo[4,5-c]quinolin-4-amine]
≤0.01	3.3	CCOC[C@H](Cc1ccccc1)n1cnc2c(N)nc3ccccc3c21 [Example 6, 1-[(1S)-1-benzyl-2-ethoxy-ethyl]imidazo[4,5-c]quinolin-4-amine]

SMILES	MEC to Produce TLR Activation, TLR 7 (human TLR7) [µM]	MEC to Produce TLR Activation, TLR 8 (human TLR8) [µM]
CCCCOc1ccc(C[C@@H](CCCC)n2cnc3c(N)nc4ccccc4c32)cc1 [Example 7, 1-[(1R)-1-[(4-butoxyphenyl)methyl]pentyl]imidazo[4,5-c]quinolin-4-amine]	≤0.01	10
